From US9815867B2, “Peptide for inhibiting vascular endothelial growth factor receptor” (The University of Tokyo, priority 2012, dated 2017)
Starred links: 1 amine or outer side, 2 acyl side, 3 side chain; linkers in the order of their positions; H or OH if unused. Positions of bridges follow the written chain, without caps; N, C: chain ends. Residues, ends and D or L forms follow the SMILES beside them. X1 = O=C(C[*:2])Nc1cccc(C(=O)[*:1])c1

Key:
[1] = test system: HUVEC; assay type: cell-based, human; conditions: 24 h
Procedure: Next, growth inhibiting activity of L1 and BL1 against HUVEC was examined by BrdU method. HUVEC cells were treated for 30 minutes with a cyclic peptide L1 or BL1 varied in concentration and then, co-incubated with the cyclic peptide and 10 ng/mL of VEGF. Twenty four hours later, the cells were labeled with BrdU for 4 hours in the presence of the cyclic peptide and VEGF. Then, the resulting cells were fixed, stained with a peroxidase-conjugated anti-BrdU antibody, and peroxidase activity was detected using a tetramethylbenzidine color colorimetric substrate. The cells without peptide and VEGF treatments and the cells without only peptide treatment were used as a control.

[2] = molecular target: T1, mouse VEGFR2 (Mus musculus, UniProt P35918); experiment: Binding of cyclic peptide to mouse VEGFR2 by BLI method (ForteBio); conditions: VEGFR2-Fc fusion immobilized, 30° C., read-out: koff, dissociation rate constant for mouse VEGFR2
T1 construct: Fc (fusion partner)
Procedure: (§1) A dissociation constant of binding between the cyclic peptide L1 or BL1 thus synthesized and human VEGFR2 or mouse VEGFR2 was determined by BLI method (ForteBio). A fusion protein of VEGFR2 and Fc was immobilized onto Anti-human IgG Capture Biosensors and the cyclic peptide L1 or BL1 varied in concentration was analyzed. The temperature was set at 30° C.

[3] = molecular target: T2, human VEGFR2 (Homo sapiens, UniProt P35968); experiment: Binding of cyclic peptide to human VEGFR2 by BLI method (ForteBio); conditions: VEGFR2-Fc fusion immobilized, 30° C., read-out: koff, dissociation rate constant for human VEGFR2
T2 construct: Fc (fusion partner)
Procedure: as §1

[4] = test system: HUVEC and human skin-derived fibroblasts; experiment: VEGF-dependent angiogenesis, Kurabo angiogenesis kit (HUVEC and human skin-derived fibroblast co-culture); assay type: cell-based; conditions: 10 μm-L1 administered group; 10 ng/mL VEGF, 11 days, anti-CD31 staining; compared with 50 μM Suramin
Procedure: Next, angiogenesis kit of Kurabo was used to study the influence of L1 or BL1 on VEGF-dependent angiogenesis. HUVEC and human skin-derived fibroblasts were co-cultured in the presence of 10 ng/mL of VEGF and L1 or BL1 varied in concentration. After culturing at 37° C., supplementation with VEGF and peptide having the same concentration three days, six days, and eight days later, and fixation of the HUVEC cells 11 days later, the resulting cells were stained with an anti-CD31 antibody to visualize them and analyzed by making use of an image analysis service included in the kit. As a control, 50 μM of an angiogenesis inhibitor Suramin was added instead of the peptide.

T2 sequence (P35968 20-764 limits assumed): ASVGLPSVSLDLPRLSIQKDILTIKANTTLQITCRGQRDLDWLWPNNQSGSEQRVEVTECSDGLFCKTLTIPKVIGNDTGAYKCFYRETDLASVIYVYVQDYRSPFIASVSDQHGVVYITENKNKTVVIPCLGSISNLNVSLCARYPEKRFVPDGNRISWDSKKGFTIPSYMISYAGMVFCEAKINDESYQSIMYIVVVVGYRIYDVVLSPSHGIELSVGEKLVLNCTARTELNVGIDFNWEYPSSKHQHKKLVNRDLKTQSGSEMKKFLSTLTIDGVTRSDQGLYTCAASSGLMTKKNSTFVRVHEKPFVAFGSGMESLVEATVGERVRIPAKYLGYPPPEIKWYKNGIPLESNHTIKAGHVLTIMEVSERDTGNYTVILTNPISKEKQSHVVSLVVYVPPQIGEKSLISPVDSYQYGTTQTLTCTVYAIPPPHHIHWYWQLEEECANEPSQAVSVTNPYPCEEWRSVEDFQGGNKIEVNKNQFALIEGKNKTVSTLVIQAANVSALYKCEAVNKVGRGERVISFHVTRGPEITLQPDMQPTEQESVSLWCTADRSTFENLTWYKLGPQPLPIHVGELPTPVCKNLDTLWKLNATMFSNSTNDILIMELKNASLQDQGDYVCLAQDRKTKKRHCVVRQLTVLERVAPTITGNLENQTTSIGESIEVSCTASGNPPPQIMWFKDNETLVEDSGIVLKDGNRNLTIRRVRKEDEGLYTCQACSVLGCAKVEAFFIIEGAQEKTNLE
T1 sequence (P35918 20-762 limits assumed): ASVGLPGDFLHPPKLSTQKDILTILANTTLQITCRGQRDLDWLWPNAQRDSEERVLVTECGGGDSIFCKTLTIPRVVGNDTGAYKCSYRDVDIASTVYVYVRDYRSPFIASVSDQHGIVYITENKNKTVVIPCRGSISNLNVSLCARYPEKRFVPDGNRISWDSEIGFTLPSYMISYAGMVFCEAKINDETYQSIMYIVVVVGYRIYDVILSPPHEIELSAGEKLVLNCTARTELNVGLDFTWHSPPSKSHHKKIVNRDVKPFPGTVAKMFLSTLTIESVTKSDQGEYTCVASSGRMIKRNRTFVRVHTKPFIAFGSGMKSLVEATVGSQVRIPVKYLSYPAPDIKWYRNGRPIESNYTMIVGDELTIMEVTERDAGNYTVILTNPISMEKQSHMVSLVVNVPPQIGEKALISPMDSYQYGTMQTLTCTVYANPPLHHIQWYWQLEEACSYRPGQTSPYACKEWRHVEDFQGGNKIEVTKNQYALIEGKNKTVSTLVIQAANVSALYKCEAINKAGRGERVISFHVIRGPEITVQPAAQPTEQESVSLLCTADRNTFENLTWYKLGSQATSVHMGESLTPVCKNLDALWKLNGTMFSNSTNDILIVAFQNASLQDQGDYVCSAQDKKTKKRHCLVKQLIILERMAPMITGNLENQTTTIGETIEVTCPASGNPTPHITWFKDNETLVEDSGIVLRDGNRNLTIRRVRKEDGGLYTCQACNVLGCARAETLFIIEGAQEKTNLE

SMILES	IC50 [1] [nM]	koff [2] [s⁻¹]	koff [3] [s⁻¹]	angiogenesis inhibiting effect [4]
CC[C@H](C)[C@@H]1NC(=O)[C@H](Cc2ccccc2)NC(=O)c2cccc(c2)NC(=O)CSC[C@@H](C(=O)NCC(N)=O)NC(=O)[C@H](CCCNC(=N)N)NC(=O)[C@H](CCC(=O)O)NC(=O)[C@H](CC(C)C)NC(=O)[C@H](CO)NC(=O)[C@H]([C@@H](C)CC)NC(=O)[C@@H]2CCCN2C(=O)[C@H](Cc2c[nH]cn2)NC(=O)[C@H](C(C)C)NC(=O)[C@H](CCCCN)NC(=O)[C@H](C(C)C)NC(=O)[C@H](CCCNC(=N)N)NC(=O)[C@H](Cc2ccc(O)cc2)NC(=O)[C@H](Cc2c[nH]cn2)NC(=O)CNC1=O [BL1, MCAB-L-Phe-Ile-Gly-His-Tyr-Arg-Val-Lys-Val-His-Pro-Ile-Ser-Leu-Glu-Arg-Cys] (FIGHYRVKVHPISLERCG-NH2; linker N-17 via X1)	60	0.0008	0.0009	
CC[C@H](C)[C@@H]1NC(=O)[C@H](Cc2ccc(O)cc2)NC(=O)[C@H](CC(C)C)NC(=O)CNC(=O)[C@H](CC(N)=O)NC(=O)[C@H](C(C)C)NC(=O)[C@H](Cc2c[nH]c3ccccc23)NC(=O)[C@@H]2CCCN2C(=O)[C@H](CC(=O)O)NC(=O)[C@H]([C@@H](C)O)NC(=O)[C@H](CO)NC(=O)[C@H](C(C)C)NC(=O)[C@H](C(C)C)NC(=O)[C@H](C(C)C)NC(=O)[C@H](Cc2ccccc2)NC(=O)CSC[C@@H](C(=O)NCC(N)=O)NC(=O)[C@H](CC(=O)O)NC1=O [L1, ClAc-L-Phe-Val-Val-Val-Ser-Thr-Asp-Pro-Trp-Val-Asn-Gly-Leu-Tyr-Ile-Asp-Cys]	60		0.002	angiogenesis inhibiting effect stronger than that of Suramin
